Results taken from patent US9023851B2 (Merck Patent GmbH, priority 2010, dated 2015).

Assays:
ZAP-70 = biological target: T1, ZAP-70 (Homo sapiens, UniProt P43403); assay: Zap70 enzymatic assay (Caliper LifeSciences technology); format: biochemical
T1 construct: purchased BPS Bioscience, CA, USA
T1 sequence (P43403 1-619): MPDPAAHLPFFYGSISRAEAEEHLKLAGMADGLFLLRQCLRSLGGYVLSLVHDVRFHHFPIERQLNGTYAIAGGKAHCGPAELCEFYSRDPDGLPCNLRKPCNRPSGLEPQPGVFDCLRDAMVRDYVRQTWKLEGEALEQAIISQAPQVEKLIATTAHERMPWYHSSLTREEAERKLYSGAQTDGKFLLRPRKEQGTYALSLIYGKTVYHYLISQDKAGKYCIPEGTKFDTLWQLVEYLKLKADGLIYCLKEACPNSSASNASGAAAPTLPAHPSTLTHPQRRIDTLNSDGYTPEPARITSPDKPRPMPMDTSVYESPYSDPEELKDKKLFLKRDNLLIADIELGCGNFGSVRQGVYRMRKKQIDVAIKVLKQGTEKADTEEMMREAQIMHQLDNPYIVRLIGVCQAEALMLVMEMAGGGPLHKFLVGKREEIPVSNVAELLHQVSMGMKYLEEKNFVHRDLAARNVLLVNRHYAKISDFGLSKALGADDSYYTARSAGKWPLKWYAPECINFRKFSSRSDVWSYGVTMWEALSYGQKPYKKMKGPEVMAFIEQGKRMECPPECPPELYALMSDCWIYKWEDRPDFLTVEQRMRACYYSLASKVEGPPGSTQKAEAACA
In short: (§1)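 Off-chip mobility-shift assay quantifying conversion of a fluorescent peptide substrate to phosphorylated product. Reactions in 100 mM HEPES pH 7.5, 1 mM DTT, 1 mM MgCl2, 0.015% Brij-35, 90 min at 25 C, stopped with EDTA. IC50 from sigmoidal fit of percent conversion versus inhibitor concentration.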

Syk = biological target: T2, Syk (Homo sapiens, UniProt P43405); assay: Syk enzyme assay (flash plate / Caliper mobility shift); format: biochemical
T2 construct: purchased BPS Bioscience, CA, USA
In short: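 Flashplate format used 2.5 nM SYK, 400 nM biotinylated peptide and 10 µM ATP with 33P tracer, pH 7.5, 1 h at 30 °C, read by radioactivity. Caliper format ran 90 min at 25 °C in HEPES pH 7.5, reading percent peptide conversion by mobility shift. IC50s came from dose-response curves.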

KDR = biological target: T3, KDR (Homo sapiens, UniProt P35968); assay: KDR enzymatic assay (Caliper LifeSciences technology); format: biochemical
T3 construct: purchased BPS Bioscience, CA, USA
In short: as §1

Src = biological target: T4, Src (Homo sapiens, UniProt P12931); assay: cSrc enzymatic assay (Caliper LifeSciences technology); format: biochemical
T4 construct: purchased Carna Bioscience, Kobe, Japan
Protocol: Enzymatic Assays Using the Caliper LifeSciences Technology
The assays described here are performed on the Caliper Life Sciences LC3000 system This technology provides data on enzyme activity via measurement of the relative amounts of phosphorylated or unphosphorylated fluorescently labelled substrate peptide at the end of an enzymatic reaction. These different states of peptide are resolved by applying a potential difference across the sample. The presence of the charged phosphate group on the product (as opposed to the substrate) causes a different peptide mobility between the two peptides. This is visualized by excitation of the fluorescent label on the substrate and product peptides and represented as peaks within the analysis software.
In order to measure inhibitor activity of kinase inhibitors on this technology, a TTP Mosquito liquid handling instrument is used to place 0.25 ul of the appropriate concentration of inhibitor in 100% DMSO (for a dose response curve calculation) into each well of a 384-well plate. To this reaction components are added to a final volume of 25 ul. The table below indicates the sequences and concentrations for the assays described in this report. Standard components are 1 mM DTT (Sigma, D0632), 1 mM MgCl2 (Sigma, M1028), 100 mM HEPES pH 7.5 (Calbiochem, 391338), 0.015% Brij-35 (Sigma, B4184).
The reaction is incubated for 90 min at 25 C, and then stopped by the addition of 70 ul of Stop buffer (100 mM HEPES pH 7.5, 0.015% Brij-35, 10 mM EDTA (Sigma, E7889)).
The plate is read on a Caliper LC 3000 in an Off-Chip mobility shift assay format, on a 12-sipper chip. Unphosphorylated substrate and phosphorylated product peptide resolve as separate peaks allowing direct measurement of percentage of conversion of substrate to product. The percent conversion can be plotted against concentration of inhibitor to produce a sigmoidal dose response curve, from which an IC50 can be calculated using GeneData Condoseo or a similar product. Cellular activity assays

Ramos cells = assay: BCR crosslinking-induced BLNK phosphorylation (BLNK cell assay); format: cell-based; settings: Homo sapiens
Protocol: 1. BCR Crosslinking-Induced BLNK Phosphorylation
Ramos cells incubated overnight in IMDM medium containing 5% FCS were resuspended in IMDM medium without serum (3.3×10^6 cells/ml). 90 μl of cell suspension (300′000 cells) were incubated with 10 μl of SYK inhibitors (in 3% DMSO) for 20 minutes at 37° C., in 96 well plates. After preincubation with inhibitors, cells were activated with 10 μg/ml of goat antihuman anti-IgM for 10 minutes at 37° C. After stimulation, cells were fixed by addition of 80 μl of 4% paraformaldehyde followed by a 10 minutes incubation at RT and […] in 0.1% Triton X-100 in PBS. BLNK phosphorylation was detected by flow cytometry after staining of the cells with anti-BLNK-pY84-PE antibodies from BD pharmingen, for 45 minutes at RT. […]

T4 sequence (P12931 whole entry): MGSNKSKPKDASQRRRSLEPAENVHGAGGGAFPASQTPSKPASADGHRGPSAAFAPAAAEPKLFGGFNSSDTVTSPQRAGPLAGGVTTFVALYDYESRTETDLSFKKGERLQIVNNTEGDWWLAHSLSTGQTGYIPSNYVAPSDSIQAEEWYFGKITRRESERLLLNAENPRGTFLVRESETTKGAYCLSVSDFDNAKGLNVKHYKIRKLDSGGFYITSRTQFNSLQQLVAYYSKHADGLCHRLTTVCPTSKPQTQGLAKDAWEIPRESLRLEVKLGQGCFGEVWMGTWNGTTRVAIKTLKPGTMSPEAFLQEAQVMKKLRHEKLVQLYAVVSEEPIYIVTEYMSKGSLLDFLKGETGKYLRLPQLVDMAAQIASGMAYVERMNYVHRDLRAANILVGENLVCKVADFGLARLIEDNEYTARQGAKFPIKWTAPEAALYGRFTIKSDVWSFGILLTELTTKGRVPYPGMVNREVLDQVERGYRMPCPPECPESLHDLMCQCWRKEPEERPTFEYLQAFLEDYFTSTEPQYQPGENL
T3 sequence (P35968 20-1356): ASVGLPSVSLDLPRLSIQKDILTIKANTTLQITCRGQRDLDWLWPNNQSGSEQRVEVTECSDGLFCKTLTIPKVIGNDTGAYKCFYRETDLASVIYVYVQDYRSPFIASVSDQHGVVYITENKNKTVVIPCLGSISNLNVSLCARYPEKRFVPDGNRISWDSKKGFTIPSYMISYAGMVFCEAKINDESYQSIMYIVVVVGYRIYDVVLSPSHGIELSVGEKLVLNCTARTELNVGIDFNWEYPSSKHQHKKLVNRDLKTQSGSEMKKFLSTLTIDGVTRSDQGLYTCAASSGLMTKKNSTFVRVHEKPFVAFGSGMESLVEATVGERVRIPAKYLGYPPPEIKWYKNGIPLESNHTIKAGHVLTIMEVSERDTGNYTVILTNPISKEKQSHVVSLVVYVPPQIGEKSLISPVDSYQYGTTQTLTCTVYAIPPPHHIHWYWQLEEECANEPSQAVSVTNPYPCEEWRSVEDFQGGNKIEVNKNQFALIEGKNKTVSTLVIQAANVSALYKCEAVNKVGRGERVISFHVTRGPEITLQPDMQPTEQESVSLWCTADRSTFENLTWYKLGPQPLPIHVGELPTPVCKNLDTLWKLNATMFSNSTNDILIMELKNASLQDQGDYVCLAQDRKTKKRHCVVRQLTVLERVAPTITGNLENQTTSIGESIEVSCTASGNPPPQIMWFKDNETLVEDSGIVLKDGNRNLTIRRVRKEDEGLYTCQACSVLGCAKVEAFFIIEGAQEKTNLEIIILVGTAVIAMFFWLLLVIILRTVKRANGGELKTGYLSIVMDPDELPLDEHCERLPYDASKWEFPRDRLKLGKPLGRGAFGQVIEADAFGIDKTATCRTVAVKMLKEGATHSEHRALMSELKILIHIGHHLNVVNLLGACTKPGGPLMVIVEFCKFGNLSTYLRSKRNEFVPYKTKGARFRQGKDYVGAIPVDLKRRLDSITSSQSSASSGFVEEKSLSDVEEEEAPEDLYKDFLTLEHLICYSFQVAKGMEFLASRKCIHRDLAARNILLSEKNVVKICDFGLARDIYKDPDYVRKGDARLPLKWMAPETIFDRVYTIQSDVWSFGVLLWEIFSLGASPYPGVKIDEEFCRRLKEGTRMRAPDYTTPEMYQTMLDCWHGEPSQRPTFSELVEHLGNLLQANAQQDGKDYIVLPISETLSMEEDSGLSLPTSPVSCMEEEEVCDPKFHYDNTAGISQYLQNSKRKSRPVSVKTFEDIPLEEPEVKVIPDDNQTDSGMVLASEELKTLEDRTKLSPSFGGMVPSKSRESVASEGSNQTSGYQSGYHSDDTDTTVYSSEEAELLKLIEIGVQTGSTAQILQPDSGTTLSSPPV

SMILES | IC50 (ZAP-70) | IC50 (Syk) | IC50 (KDR) | IC50 (Src) | IC50 (Ramos cells)
Cc1cc(C)cc(Nc2nc3c(NCCCN4CCN(C)CC4)nccn3n2)c1 [Example C36, N^2-(3,5-Dimethyl-phenyl)-N^8-[3-(4-methyl-piperazin-1-yl)-propyl]-[1,2,4]triazolo[1,5-a]pyrazine-2,8-diamine] | 3 to 50 µM | 3 to 50 µM | 3 to 50 µM | 3 to 50 µM | 
FC(F)(F)c1cccc(Nc2nc3c(NCCCN4CCOCC4)nccn3n2)c1 [Example C42, N^8-(3-Morpholin-4-yl-propyl)-N^2-(3-trifluoromethyl-phenyl)-[1,2,4]triazolo[1,5-a]pyrazine-2,8-diamine] | 0.3 to 3 µM | 3 to 50 µM | 3 to 50 µM | 3 to 50 µM | 
Cc1cccc(Nc2nc3c(NCCCN4CCOCC4)nccn3n2)c1 [Example C47, N^8-(3-Morpholin-4-yl-propyl)-N^2-m-tolyl-[1,2,4]triazolo[1,5-a]pyrazine-2,8-diamine] | 3 to 50 µM | 3 to 50 µM | 3 to 50 µM | 3 to 50 µM | 
Cc1cccc(Nc2nc3c(NCCCN4CCN(C)CC4)nccn3n2)c1 [Example C48, N^8-[3-(4-Methyl-piperazin-1-yl)-propyl]-N^2-m-tolyl-[1,2,4]triazolo[1,5-a]pyrazine-2,8-diamine] | 0.3 to 3 µM | 3 to 50 µM | 3 to 50 µM | 3 to 50 µM | 
NCc1cccc(-c2nccn3nc(Nc4ccc(N5CCOCC5)cc4)nc23)c1 [Example C253, [8-(3-Aminomethyl-phenyl)-[1,2,4]triazolo[1,5-a]pyrazin-2-yl]-(4-morpholin-4-yl-phenyl)-amine] |  | < 0.3 µM | < 0.3 µM | 0.3 to 3 µM | 3 to 50 µM
COc1cc(Nc2nc3c(-c4ccc(C(C)(C)C#N)cc4)nccn3n2)cc(OC)c1 [Example C256, 2-{4-[2-(3,5-Dimethoxy-phenylamino)-[1,2,4]triazolo[1,5-a]pyrazin-8-yl]-phenyl}-2-methyl-propionitrile] | 3 to 50 µM | < 0.3 µM | 0.3 to 3 µM | 0.3 to 3 µM | 
c1ccc2ncc(-c3nccn4nc(Nc5ccc(N6CCOCC6)cc5)nc34)cc2c1 [Example C261] | 3 to 50 µM | < 0.3 µM | < 0.3 µM | 0.3 to 3 µM | 3 to 50 µM
c1cnc2cc(-c3nccn4nc(Nc5ccc(N6CCOCC6)cc5)nc34)ccc2c1 [Example C265, (4-Morpholin-4-yl-phenyl)-(8-quinolin-7-yl-[1,2,4]triazolo[1,5-a]pyrazin-2-yl)-amine] | 0.3 to 3 µM | < 0.3 µM | < 0.3 µM | 0.3 to 3 µM | 3 to 50 µM
COc1cc(Nc2nc3c(-c4cccc(O)c4)nccn3n2)cc(OC)c1 [Example C268, 3-[2-(3,5-Dimethoxy-phenylamino)-[1,2,4]triazolo[1,5-a]pyrazin-8-yl]-phenol] | 0.3 to 3 µM | < 0.3 µM | < 0.3 µM | 0.3 to 3 µM | 3 to 50 µM
Oc1cccc(-c2nccn3nc(Nc4ccc(N5CCOCC5)cc4)nc23)c1 [Example C269, 3-[2-(4-Morpholin-4-yl-phenylamino)-[1,2,4]triazolo[1,5-a]pyrazin-8-yl]-phenol] | 0.3 to 3 µM | < 0.3 µM | < 0.3 µM | 0.3 to 3 µM | 
COc1cc(Nc2nc3c(-c4cccc(NS(C)(=O)=O)c4)nccn3n2)cc(OC)c1 [Example C272, N-{3-[2-(3,5-Dimethoxy-phenylamino)-[1,2,4]triazolo[1,5-a]pyrazin-8-yl]-phenyl}-methanesulfonamide] | 0.3 to 3 µM | < 0.3 µM | < 0.3 µM | 0.3 to 3 µM | 3 to 50 µM
COc1cc(Nc2nc3c(-c4ccccc4-c4ccccc4)nccn3n2)cc(OC)c1 [Example C284, (8-Biphenyl-2-yl-[1,2,4]triazolo[1,5-a]pyrazin-2-yl)-(3,5-dimethoxy-phenyl)-amine] |  | < 0.3 µM |  |  | 3 to 50 µM
COc1cc(Nc2nc3c(-c4cnn(C)c4)nccn3n2)cc(OC)c1 [Example C300, (3,5-Dimethoxy-phenyl)-[8-(1-methyl-1H-pyrazol-4-yl)-[1,2,4]triazolo[1,5-a]pyrazin-2-yl]-amine] | 3 to 50 µM | < 0.3 µM | 0.3 to 3 µM | 0.3 to 3 µM | 
COc1cc(Nc2nc3c(-c4cn[nH]c4)nccn3n2)cc(OC)c1 [Example C301, (3,5-Dimethoxy-phenyl)-[8-(1H-pyrazol-4-yl)-[1,2,4]triazolo[1,5-a]pyrazin-2-yl]-amine] | 3 to 50 µM | < 0.3 µM | 0.3 to 3 µM | 0.3 to 3 µM | 
COc1cc(Nc2nc3c(-c4cccc5[nH]ncc45)nccn3n2)cc(OC)c1 [Example C303, (3,5-Dimethoxy-phenyl)-[8-(1H-indazol-4-yl)-[1,2,4]triazolo[1,5-a]pyrazin-2-yl]-amine] | < 0.3 µM | < 0.3 µM | 0.3 to 3 µM | < 0.3 µM | 
Cc1nc2cc(Nc3nc4c(-c5cnn(C)c5)nccn4n3)ccc2[nH]1 [Example D1, (2-Methyl-1H-benzoimidazol-5-yl)-[8-(1-methyl-1H-pyrazol-4-yl)-[1,2,4]triazolo[1,5-a]pyrazin-2-yl]-amine] |  | < 0.3 µM | 0.3 to 3 µM | 0.3 to 3 µM | 3 to 50 µM
Cn1ncc2cc(-c3nccn4nc(Nc5ccc(N6CCOCC6)cc5)nc34)ccc21 [Example D2, [8-(1-Methyl-1H-indazol-5-yl)-[1,2,4]triazolo[1,5-a]pyrazin-2-yl]-(4-morpholin-4-yl-phenyl)-amine] | 3 to 50 µM | < 0.3 µM | < 0.3 µM | 0.3 to 3 µM | 
CN(C)c1ccc(-c2nccn3nc(Nc4ccc(N5CCOCC5)cc4)nc23)cn1 [Example D3, [8-(6-Dimethylamino-pyridin-3-yl)-[1,2,4]triazolo[1,5-a]pyrazin-2-yl]-(4-morpholin-4-yl-phenyl)-amine] | 3 to 50 µM | < 0.3 µM | < 0.3 µM | 0.3 to 3 µM | 
COCC(O)Cn1cc(-c2nccn3nc(Nc4ccc(N5CCOCC5)cc4)nc23)cn1 (stereo not shown) [Example D6, 1-Methoxy-3-{4-[2-(4-morpholin-4-yl-phenylamino)-[1,2,4]triazolo[1,5-a]pyrazin-8-yl]-pyrazol-1-yl}-propan-2-ol] | 3 to 50 µM | 0.3 to 3 µM | 0.3 to 3 µM | 0.3 to 3 µM | 
COc1cc(Nc2nc3c(N4CCCC4c4ccccn4)nccn3n2)cc(OC)c1 (stereo not shown) [Example D21, (3,5-Dimethoxy-phenyl)-[8-(2-pyridin-2-yl-pyrrolidin-1-yl)-[1,2,4]triazolo[1,5-a]pyrazin-2-yl]-amine] | 3 to 50 µM | 0.3 to 3 µM | 3 to 50 µM | 3 to 50 µM | 
